Legend:
Type in all cases: physicochemical
[1] = Fluorescence spectra of the KR peptide series in dioxane vs. TBS buffer; conditions: for fluorescence intensity ratio (Idioxane/ITBS), in words: at the wavelength of maximum emission intensity in dioxane
Protocol: This example illustrates investigations into the biological applications of the dimethylamino phthalimide series of environment sensitive fluorophores (FIGS. 3C-3E), as compared to both dansyl and NBD. A comparative study was performed on the fluorophores of FIG. 3 by synthetically preparing a series of lysine-arginine rich peptides (KR peptide series) such that each peptide in the series contained one of the five fluorophores appended to the side-chain of the residue at position 4 in the peptide sequence (FIG. 4), SEQ ID NOs: 5-9. The fluorescence spectra of the KR peptides were then measured at 5 micromolar in both TBS buffer (pH 7.4) and dioxane (containing 5 mM 18-crown-6). These conditions were selected to determine the magnitude of the fluorescence change for each fluorophore under an ideal set of conditions. […] An advantage of this property is a much improved signal-to-noise ratio for experimental measurements made in the context of real biological systems. […] While it is often possible to optimize the maximum fluorescence output by experimenting with the placement of the selected fluorophore on the protein of interest, the intrinsic fluorescence of the fluorophore in aqueous environments is often a limiting factor when optimizing the fluorescent response.

[2] = Hydrolysis of the imide ring followed by fluorescence in PBS buffer over 24 hours
Protocol: The 4DMAP and 6DMN fluorophores are likely susceptible to the gradual hydrolysis of the imide ring system in the pH range of 7 to 8. The origin of this reactivity can be attributed to the bond angle strain of the five-membered imide ring system that is released during the ring opening process. […] This is apparent in an experiment performed on both the KR4DMAP and KR4DMN peptides using a PerkinElmer HTS7000 plate reader. Fluorescence of the two peptides was measured at their respective emission wavelengths in PBS buffer over a 24 hour period at 28° C.
The fluorophore remained intact throughout the 24 hr duration. This difference between the stability of 4DMN and that of 4DMAP is most evident at pH 8 where the rate of hydrolysis for 4DMAP is greatest (FIG. 7).

[3] = Exposure to standard Fmoc deprotection protocol (20% 4-methylpiperidine in DMF) on solid support, analysis by MALDI-MS, HPLC, ESI-MS
Protocol: This example illustrates the incorporation of 4DMAP and 6DMN into peptides by coupling an anhydride precursor of either fluorophore to a free amine on a fully synthesized peptide in the last step prior to cleaving the peptide from the solid support. […] This is evident in the experiment shown in FIG. 9 where the KR peptides of 4DMN and 6DMN were both exposed to a standard Fmoc deprotection protocol while still on solid support. Roughly 20 mg of resin for each peptide was transferred to a small 2 mL spin tube and treated at room temperature with a solution of 20% 4-methylpiperidine in DMF (3×5 min). The peptides were then cleaved from the resin and analyzed by MALDI-MS, HPLC, and ESI-MS.
The masses of these two peaks determined by ESI-MS were identical and confirmed to be that of the 4-methylpiperidine adduct. It is believed that the occurrence of the two byproduct peaks, instead of one, is due to varying retention times for the two possible isomers formed depending on which of the imide carbonyls are attacked by the base. […] The HPLC and ESI-MS analysis also confirmed that no reaction occurred. The 4DMNA amino acid appears to be unreactive under these conditions. Furthermore, it is worth emphasizing that the 4DMN chromophore was exposed to this same treatment twice previously during the preparation of the KR4DMN peptide using the 4DMNA Fmoc building-block.

[4] = Resistance of the 4DMN side chain to solid-phase peptide synthesis conditions; conditions: 0.12 M diisopropylethylamine; 20% piperidine; 95% TFA
Protocol: The peptide synthesis was carried out using standard Fmoc-based solid phase peptide synthesis (SPPS) protocols on a 0.05 to 0.1 mmol scale using a 0.21 mmol/g loading PAL-PEG-PS solid support. Amino acids were coupled in three-fold excess using a mixture of 0.2 M HBTU/0.2 M HOBt in DMF as activating agents. Each amino acid was activated for two minutes with the HBTU/HOBt mixture (1 eq.) and diisopropylethylamine (DIPEA), 0.195 M in DMF (1.5 eq.) before being added to the resin. Peptide coupling was monitored using the 2,4,6-trinitrobenzenesulphonic acid (TNBS) test. Amino acids were used as protected Fmoc-amino acids with the standard side chain protecting groups. High-performance liquid chromatography (HPLC) was performed using a Waters 600E HPLC fitted with a Waters 600 automated control module and a Waters 2487 dual wavelength absorbance detector recording at 228 and 280 nm. For analytical HPLC, a Beckman Ultrasphere C18, 5 micrometer, 4.6×150 mm reverse-phase column was used. For preparative separations, a YMC-pack, C18, 250×20 mm reversed phase column was used. The standard gradient for analytical and preparative HPLC used was 93:7 to 5:95 over 35 minutes (water:acetonitrile, 0.1% TFA).

## CN(C)c1ccc2c(c1)C(=O)NC2=O [4DMAP, 4-dimethylamino phthalimide, reference compound]
[1]
  fluorescence intensity ratio (Idioxane/ITBS), in words: greater than three orders of magnitude
[2]; pH 8, PBS buffer, 28° C.
  rate of hydrolysis: significantly enhanced

## dansyl
[1]; KR peptide series
  λexc: below 350 nm

## CN(C)c1ccc2c3c(cccc13)C(=O)N(CC(N)C(=O)O)C2=O (stereo not drawn) [4DMNA]
[3]; 20% 4-methylpiperidine in DMF, 3×5 min, room temperature, on resin
  formation of 4-methylpiperidine adduct: unreactive

## CN(C)c1ccc2c3c(cccc13)C(=O)NC2=O [4DMN, 4-N,N-dimethylamino-1,8-naphthalimide]
[1]
  fluorescence intensity ratio (Idioxane/ITBS), in words: greater than three orders of magnitude
[2]; pH range of 7 to 8
  hydrolysis of the imide ring system: no such reactivity
[4]
  resistance to peptide synthesis conditions: resistant

## CN(C)c1ccc2cc3c(cc2c1)C(=O)NC3=O [6DMN, 6-N,N-dimethylamino-2,3-naphthalimide]
[1]
  fluorescence intensity ratio (Idioxane/ITBS), in words: greater than three orders of magnitude

## CN(C)c1ccc2c3c(cccc13)C(=O)N(CC(NC(=O)OCC1c3ccccc3-c3ccccc31)C(=O)O)C2=O (stereo not drawn) [Fmoc-4DMNA, N-α-Fmoc-(4-N,N-dimethylamino-1,8-naphthalimido) alanine]
[3]; use in preparation of various peptides
  susceptibility to nucleophilic attack by bases like 4-methylpiperidine: no susceptibility
